Earlier results, collected in publication PMC7745548 (International Journal of Tryptophan Research : IJTR, 2020).

How the values were obtained:
[1] = tested on: human microsomal P450 1A2 (CYP1A2); settings: different crystal structure (PDB code: 1FAG) ref 26, 28
[2] = tested on: CYP1A2
[3] = tested on: CYP2C9; settings: O-demethylation major pathway

COc1ccc2[nH]cc(CCNC(C)=O)c2c1 [MLT, N-acetyl-5-methoxytryptamine]
Distance between SOM and Fe(II) ion of heme [1]: 4.15 Å

COc1ccc2c(c1)c(CC(=O)O)c(C)n2C(=O)c1ccc(Cl)cc1 [Indomethacin]
Metabolism by CYP1A2 [2]: only slightly metabolised by CYP1A2 | Metabolism by CYP2C9 [3]: mainly metabolised by CYP2C9
